# Literature values, collected in PMC6768041 (Chemistry Central Journal, 2018).
# Experiments:
# hMAO-B = target: T1, hMAO-B (Homo sapiens, UniProt P27338); parameters: method as in PMID 26592858; conditions: cited from earlier work
# T1 construct: host or cells: insect cells (BTI-TN-5B14), recombinant baculovirus
# T1 sequence (P27338 1-520): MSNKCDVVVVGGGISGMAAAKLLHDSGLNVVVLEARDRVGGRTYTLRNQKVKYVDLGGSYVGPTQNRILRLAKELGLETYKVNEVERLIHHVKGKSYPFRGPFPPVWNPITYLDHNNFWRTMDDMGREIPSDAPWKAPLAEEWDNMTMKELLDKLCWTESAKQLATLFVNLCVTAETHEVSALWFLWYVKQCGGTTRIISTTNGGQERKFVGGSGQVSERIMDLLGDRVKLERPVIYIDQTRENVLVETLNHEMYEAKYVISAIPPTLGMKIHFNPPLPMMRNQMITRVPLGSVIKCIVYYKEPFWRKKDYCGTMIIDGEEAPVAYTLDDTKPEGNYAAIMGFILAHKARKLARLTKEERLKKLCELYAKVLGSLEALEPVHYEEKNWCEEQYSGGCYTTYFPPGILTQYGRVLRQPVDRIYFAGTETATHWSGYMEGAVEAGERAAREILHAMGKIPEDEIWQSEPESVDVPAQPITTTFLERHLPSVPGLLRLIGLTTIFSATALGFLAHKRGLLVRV
# hMAO-A = target: T2, hMAO-A (Homo sapiens, UniProt P21397); conditions: cited from earlier work
# T2 construct: host or cells: insect cells (BTI-TN-5B14), recombinant baculovirus
# T2 sequence (P21397 1-527): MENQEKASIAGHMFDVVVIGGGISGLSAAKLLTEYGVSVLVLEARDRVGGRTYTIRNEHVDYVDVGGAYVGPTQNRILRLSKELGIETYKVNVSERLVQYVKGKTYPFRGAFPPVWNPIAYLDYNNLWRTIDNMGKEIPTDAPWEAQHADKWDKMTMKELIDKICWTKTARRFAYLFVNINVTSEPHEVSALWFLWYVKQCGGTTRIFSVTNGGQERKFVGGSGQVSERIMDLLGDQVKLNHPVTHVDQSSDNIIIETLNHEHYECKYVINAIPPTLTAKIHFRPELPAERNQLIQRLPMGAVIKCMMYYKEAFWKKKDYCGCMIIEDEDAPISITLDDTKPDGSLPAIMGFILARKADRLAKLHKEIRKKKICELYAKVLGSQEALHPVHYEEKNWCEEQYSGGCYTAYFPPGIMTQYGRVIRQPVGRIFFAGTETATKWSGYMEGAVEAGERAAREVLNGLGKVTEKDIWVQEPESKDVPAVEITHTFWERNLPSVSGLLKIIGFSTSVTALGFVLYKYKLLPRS
compound,measurement,setting,value
COc1cc(/C=C/C(=O)O)ccc1O [Ferulic acid],MAO inhibition value hMAO-B,hMAO-B,24.00 ± 1.98 µM
same,MAO inhibition value hMAO-A,hMAO-A,7.55 ± 0.49 µM
